Consider 27 molecules from ChEMBL document CHEMBL3044882, “Mosquito larvicidal studies of some chalcone analogues and their derived products: structureactivity relationship analysis” (2011).

The test system of test [1] is Culex quinquefasciatus. The test is described as follows: Toxicity against third instar larve of Culex quinquefasciatus after 24 hr. Type of test: functional.
In test [2] the test system is Culex quinquefasciatus. Nature of the test: Toxicity against third instar larve of Culex quinquefasciatus assessed as mortality at 100 ugcm'-3 after 24 hr. Type of test: functional.

Activity calls are given as the source filed them. No cut-off for these calls is given here.

In turn, `O=C(/C=C/c1cccc([N+](=O)[O-])c1)c1ccc(O)cc1` showed an LC50 in test [1] of 89 umol/dm3.

In test [1], `COc1cccc(/C=C/C(=O)c2ccccc2O)c1-c1ccc(O)cc1` gave an LC50 of 684.9 umol/dm3. Take `O=C(/C=C/c1ccc2c(c1)OCO2)c1ccccc1O`: the LC50 in test [1] is on record as 986.1 umol/dm3. On the same count and under the same terms, for `O=C(/C=C/C=C/c1ccccc1)c1ccccc1` the value was 437 umol/dm3; for `O=C(/C=C/c1cccc([N+](=O)[O-])c1)c1ccccc1`, 994.4 umol/dm3. With `O=C(/C=C/c1ccccc1)c1ccccc1` [CHALCONE], the mortality (in general, the percentage killed) in test [2] was found to be 100%. Further, the LC50 in test [1] was 90 umol/dm3. The molecule `O=C(/C=C/c1cccc([N+](=O)[O-])c1)c1ccccc1O` returned an LC50 in test [1] of 526.6 umol/dm3. `O=C(/C=C/c1ccc(Cl)cc1)c1ccccc1` [4-CHLORO CHALCONE] had an LC50 in test [1] of 5 umol/dm3. On to `O=C(/C=C/c1ccc(Cl)cc1)c1ccccc1O`, for which the mortality in test [2] is listed as 100%. Moreover, the LC50 in test [1] stood at 81 umol/dm3. The corresponding values for `O=C(/C=C/c1ccccc1O)c1ccccc1` are 100% and 104 umol/dm3. Turning to `C(=C\c1ccccc1)/C(=N/Nc1ccccc1)c1ccccc1`, the LC50 in test [1] is recorded as 2134.5 umol/dm3. Regarding `CC(/C=C/c1ccccc1)=N\Nc1ccc([N+](=O)[O-])cc1[N+](=O)[O-]`, the mortality result in test [2] was “inactive”. This molecule also yielded an LC50 in test [1] of 2344.1 umol/dm3. As to `COc1cccc(/C=C/C(=O)c2ccccc2)c1-c1ccc(O)cc1`, the LC50 in test [1] is reported as 1474 umol/dm3. Take `O=[N+]([O-])c1ccc(N/N=C(/C=C/c2ccccc2)c2ccccc2)c([N+](=O)[O-])c1`: the mortality result in test [2] is “inactive”. Also, the LC50 in test [1] worked out at 2531.3 umol/dm3. Consider `O=C(/C=C/c1ccccc1)/C=C/c1ccccc1`, for which, in test [1], the LC50 is reported as 2064.4 umol/dm3. The same measure, in the same setting: for `CC(/C=C/c1ccccc1)=N\NC(N)=O` the value was 2087.9 umol/dm3. Take `O=[N+]([O-])c1ccc(NN=C(/C=C/c2ccccc2)/C=C/c2ccccc2)c([N+](=O)[O-])c1`: the mortality result in test [2] is “inactive”. Moreover, the LC50 in test [1] stood at 2638.2 umol/dm3. In test [1], `O=C(/C=C/c1ccc([N+](=O)[O-])cc1)c1ccccc1O` displayed an LC50 of 881.6 umol/dm3. Still for that read-out and setting: for `CC(/C=C/c1ccccc1)=N\Nc1ccccc1` the value was 465 umol/dm3. Turning to `O=C(/C=C/c1ccc([N+](=O)[O-])cc1)c1ccc(O)cc1`, the LC50 in test [1] worked out at 91 umol/dm3. On the same count and under the same terms, for `CC(/C=C/c1ccccc1)=N/O` the value was 345 umol/dm3. As for `O=C(/C=C/c1ccccc1)c1ccccc1O` [2'-HYDROXYCHALCONE], in test [2], the mortality turned out to be 100%. The molecule also gave an LC50 in test [1] of 55 umol/dm3. The corresponding values for `O=C(/C=C/c1ccco1)c1ccccc1O` are 100% and 19 umol/dm3. In the case of `O=C(/C=C/c1ccc([N+](=O)[O-])cc1)c1ccccc1`, the LC50 in test [1] was 959.5 umol/dm3. Same read-out and setting: to `O=C(/C=C/c1ccc2c(c1)OCO2)c1ccccc1` belongs 5 umol/dm3; to `O=C(/C=C/C=C/c1ccccc1)c1ccccc1O`, 1121.1 umol/dm3. Turning to `O=C(/C=C/c1ccccc1)c1ccc(O)cc1` [4'-HYDROXYCHALCONE], the LC50 in test [1] is recorded as 238 umol/dm3.
